The values that follow come from patent publication US20260226076A1, “FUSED MULTICYCLIC COMPOUNDS AND THEIR USE AS PARP1 INHIBITORS” (LAEKNA THERAPEUTICS SHANGHAI CO., LTD., priority 2022, published 2026).

A short description of data set [1]: Tumor/plasma ratio study in MDA-MB-436 tumor-bearing mouse. It counts as in vivo. The note with it: female NOD-SCID mice with MDA-MB-436 tumors, dosed 28 days; for concentration at 24 h: LC-MS/MS; for Kp at 24 h: tumor/plasma, 24 hours after the last dose. The procedure: 1×10^7 MDA-MB-436 cells were implanted subcutaneously onto the flank of female NOD-SCID mice (aged 6-8 weeks weighing approximately 18-22 g). When tumors reached approximately 150-180 mm3, the mice were randomly assigned to treatment groups. The mice were continuously dosed with the Compounds for 28 days. On day 29, blood (50 μL) and tumor tissue samples were collected at 24 hours after the last dose. The collected blood samples were then centrifuged at 4600 rpm for 5 minutes at 4° C. to obtain plasma. To determine compound levels in plasma samples, each plasma sample was prepared using an appropriate dilution factor and compared against an 11-point standard calibration curve (1-5,000 ng/mL) prepared in DMSO and spiked into blank plasma. Acetonitrile (200 μL) was added with internal standard into 20 μL plasma samples, followed by centrifugation at 5,500 rpm for 10 minutes. Supernatant (150 μL) was then diluted in water (150 μL) and analyzed via LC-MS/MS. Tumor tissue samples were weighed, and then homogenized with 80% methanol at a ratio of 1:5 or 1:10 (tumor weight in grams to methanol volume in milliliters). Acetonitrile (300 μL) was added with internal standard into 30 μL tumor homogenates sample. The samples were vortexed for 30 s and then centrifuged at 5,500 rpm for 10 min at 4° C. The supernatant (150 μL) was transferred to 96-well plate and diluted with water (150 μL) and analyzed via LC-MS/MS. If a sample concentration in initial assay was not covered in the range of a given standard curve, proper dilution and concentration procedures were used in repeated testing.

The next data set has as its system MDA-MB-436 cells. Briefly: Cell proliferation assay (MDA-MB-436). The note with it: Homo sapiens, MDA-MB-436, 168 h, at least 7 days, Cell-Titer Glo, read-out: MDA-MB-436 anti-proliferation assay. It counts as cell-based. The procedure:
(§1) For PARPi sensitivity, exponentially growing MDA-MB-436 and DLD1 BRCA2^−/− cells were seed in 96 or 384-well plates at very low density with the goal of not splitting for at least 7 days (typically 0.3k-1.2k cells/well). Cells were plated on […] and treated with DMSO or increasing concentrations of PARP1 inhibitors on Day 0. At the end of the experiment, cell viability was estimated using Cell-Titer Glo (Promega).

The next data set deals with PARP2 (Homo sapiens, UniProt Q9UGN5). As to the kind of experiment: PARP2-FL displacement assay. In kind it is binding. The note with it: 20 nM PARP2, 3 nM PARPi-FL, 4 hours incubation, fluorescence polarization. The procedure: A potent PARP inhibitor (PARPi-FL, Cat No. 6461, Tocris Bioscience) conjugated to BDY FL fluorophore was adopted to characterize the activity of PARP2 by measuring the displacement of binding of PARPi-FL to PARP2. Compounds to be tested were prepared at a concentration of 1-10 mM, and made a 3-fold serial dilution by 100% DMSO in a polypropylene plate (Bio-One small volume microplate, black, Cat No. 784076, Greiner). 100 nL of test compounds were dispensed into a 384-well polypropylene microplate and added 10 μL of reaction solution including premixed 20 nM PARP2 and 3 nM PARPi-FL. After 4 hours of incubation at room temperature, the fluorescence polarization signal at 480/30 nm excitation and 530/30 nm dual emission was measured by VICTOR Nivo® multimode plate reader (PerkinElmer). All of the measured IC50 values were calculated using four parameters dose-response inhibition model in GraphPad Prism 8.0.2 (La Jolla, California, USA, www.graphpad.com).
Chain of PARP2 (Q9UGN5 whole entry): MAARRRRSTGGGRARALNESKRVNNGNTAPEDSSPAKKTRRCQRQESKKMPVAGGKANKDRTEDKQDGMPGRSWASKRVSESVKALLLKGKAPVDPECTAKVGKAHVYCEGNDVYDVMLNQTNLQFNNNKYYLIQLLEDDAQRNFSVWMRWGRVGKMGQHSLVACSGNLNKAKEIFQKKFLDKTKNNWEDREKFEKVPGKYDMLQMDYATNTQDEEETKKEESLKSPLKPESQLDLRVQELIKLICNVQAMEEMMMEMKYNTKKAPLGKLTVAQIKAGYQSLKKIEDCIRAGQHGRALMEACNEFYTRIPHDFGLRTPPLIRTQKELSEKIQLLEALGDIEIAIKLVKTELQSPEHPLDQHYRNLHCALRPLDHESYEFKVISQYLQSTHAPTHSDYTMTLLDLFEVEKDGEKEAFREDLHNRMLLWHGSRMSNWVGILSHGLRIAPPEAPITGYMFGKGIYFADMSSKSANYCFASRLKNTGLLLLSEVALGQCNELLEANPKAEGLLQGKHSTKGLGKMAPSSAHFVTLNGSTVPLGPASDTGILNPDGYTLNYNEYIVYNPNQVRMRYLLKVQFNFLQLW
(In general: In fluorescence polarisation assays a small probe gives low polarisation when free and higher when bound to something large.)

Another data set addresses PARP1 (Homo sapiens, UniProt P09874). Briefly: PARP1-DNA enzymatic trapping assay. It counts as biochemical. The note with it: 10 nM PARP1, 5 nM DNA probe, 2 mM NAD+, fluorescence polarization read at 30 minutes. The procedure: Enzymatic trapping assay is to measure the dissociation process of PARP1 from fluorescein-labeled DNA during the enzymatic activity. Assay was conducted at a total 10 μL of reaction volume, including 10 nM PARP1 and 5 nM DNA probe in the binding buffer (50 mM Tris-HCl pH 8.0, 50 mM NaCl, 1 mM MgCl2, 0.1 mM EDTA, and 0.01% IGEPAL), and was commenced by adding a final concentration of 2 mM NAD+ substrate.
PARP1 Poly-ADP ribosylation (PARylation) inhibitory assay was conducted with compounds dissolved in DMSO at a starting concentration of 5 μM. Dissolved compounds were added to 384-well microplate and premixed with PARPI enzyme and DNA probe for 20 minutes incubation. Enzymatic reactions were started by adding NAD+ to mixture, and each well was read at 30 minutes by microplate reader (VICTOR Nivo®, PerkinElmer) to detect the fluorescence polarization signal at 480 nm excitation/530 nm dual emission.
All measured IC50 values were calculated using four parameters dose-response inhibition model in GraphPad Prism 8.0.2 (La Jolla, California, USA, www.graphpad.com).

Another data set deals with DLD1 BRCA2−/− cells. Briefly: Cell proliferation assay (DLD1 BRCA2−/−). The settings on record: Homo sapiens, DLD-1, 168 h, at least 7 days, Cell-Titer Glo, read-out: DLD1 BRCA2−/− anti-proliferation assay. It counts as cell-based. The procedure: as §1
Setting [2] is: tumor tissue 24 hours after the last dose, read-out: Tumor.
The mark [3] stands for this setting: plasma, sample 24 hours after the last dose, read-out: Plasma.

Read-outs that look alike come from different tables or passages of the source.

Chain of PARP1 (P09874 whole entry): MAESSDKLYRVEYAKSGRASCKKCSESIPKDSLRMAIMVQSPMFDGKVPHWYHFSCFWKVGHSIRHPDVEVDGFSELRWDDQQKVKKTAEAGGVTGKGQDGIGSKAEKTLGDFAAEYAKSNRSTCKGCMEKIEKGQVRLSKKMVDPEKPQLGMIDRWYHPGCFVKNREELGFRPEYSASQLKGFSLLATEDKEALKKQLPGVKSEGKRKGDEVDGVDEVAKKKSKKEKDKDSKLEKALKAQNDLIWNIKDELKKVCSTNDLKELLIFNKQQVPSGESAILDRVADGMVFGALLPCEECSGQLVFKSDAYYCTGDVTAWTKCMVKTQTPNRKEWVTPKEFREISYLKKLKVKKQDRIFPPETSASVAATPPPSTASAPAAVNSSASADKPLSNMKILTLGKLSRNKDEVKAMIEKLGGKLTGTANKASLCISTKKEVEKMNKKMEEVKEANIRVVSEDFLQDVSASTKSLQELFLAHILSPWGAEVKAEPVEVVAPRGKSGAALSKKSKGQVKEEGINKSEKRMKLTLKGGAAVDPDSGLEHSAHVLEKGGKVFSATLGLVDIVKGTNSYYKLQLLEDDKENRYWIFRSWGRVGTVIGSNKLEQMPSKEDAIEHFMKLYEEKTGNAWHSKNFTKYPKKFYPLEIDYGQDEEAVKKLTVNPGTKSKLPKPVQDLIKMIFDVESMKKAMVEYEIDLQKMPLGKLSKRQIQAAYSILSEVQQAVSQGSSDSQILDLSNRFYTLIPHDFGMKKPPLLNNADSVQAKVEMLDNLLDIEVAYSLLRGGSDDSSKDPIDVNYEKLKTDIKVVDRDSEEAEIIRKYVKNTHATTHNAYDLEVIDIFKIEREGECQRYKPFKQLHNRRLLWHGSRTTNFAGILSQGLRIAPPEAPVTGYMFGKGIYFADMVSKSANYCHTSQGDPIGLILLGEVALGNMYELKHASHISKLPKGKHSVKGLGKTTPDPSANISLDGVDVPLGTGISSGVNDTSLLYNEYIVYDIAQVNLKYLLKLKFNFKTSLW

With `CCc1cc2ncc(CN3CCN(c4ccc(C(=O)NC)nc4)CC3)cc2[nH]c1=O` [AZD5305, reference compound], the results for the concentration at 24 h in data set [1] (setting [2]) and in data set [1] (setting [3]) were 249 ng/g and 584 ng/mL, respectively. Besides, the Kp at 24 h in data set [1] is 0.4.

As for `CCc1cc2ncc(CN3C[C@@H]4CN(c5ccc(C(=O)NC)nc5F)C[C@H]4C3)cc2[nH]c1=O` [Compound 27], the IC50 was found to be 0.23 nM with MDA-MB-436 cells, 1100 nM at PARP2, 7.52 nM at PARP1 and 0.22 nM with DLD1 BRCA2−/− cells.

Take `O=C(N[C@H]1CCOC1)c1ccc(N2C[C@H]3CN(Cc4ccc5c6c(c(=O)[nH]c5c4)COCC6)C[C@@H]3C2)c(F)n1` [Compound 85]: the IC50 with MDA-MB-436 cells worked out at 1.05 nM; on PARP2 it was 811 nM; at PARP1, 8.15 nM; with DLD1 BRCA2−/− cells, 1.1 nM.

With `CNC(=O)c1ccc(N2C[C@H]3CN(Cc4cc5[nH]c(=O)c6c(c5cn4)CCOC6)C[C@@H]3C2)c(F)n1` [Compound 77], the IC50 stood at 0.41 nM in the data set on MDA-MB-436 cells, 1630 nM on PARP2, 7.73 nM on PARP1 and 2.7 nM with DLD1 BRCA2−/− cells.

Consider `CO[C@H]1C[C@@H](NC(=O)c2ccc(N3C[C@H]4CN(Cc5ccc6c7c(c(=O)[nH]c6c5)COCC7)C[C@@H]4C3)c(F)n2)C1` [Compound 70], for which the IC50 was found to be 0.39 nM in the data set on MDA-MB-436 cells, 614 nM on PARP2, 4.2 nM against PARP1 and 0.7 nM with DLD1 BRCA2−/− cells.

On to `CNC(=O)c1ccc(N2C[C@H]3CN(Cc4ccc5c6c(c(=O)[nH]c5c4)COCC6)C[C@@H]3C2)c(F)n1` [Compound 66], for which the IC50 in the data set on MDA-MB-436 cells was determined as 0.12 nM; on PARP2 it was 219 nM; on PARP1, 4.87 nM; in the data set on DLD1 BRCA2−/− cells, 0.52 nM.

On to `O=C(NC1COC1)c1ccc(N2C[C@H]3CN(Cc4cnc5c6c(c(=O)[nH]c5c4)CCCC6)C[C@@H]3C2)c(F)n1` [Compound 83], for which the IC50 in the data set on MDA-MB-436 cells was 0.54 nM; at PARP2 it was 147 nM; on PARP1, 7.66 nM; with DLD1 BRCA2−/− cells, 0.54 nM.

With `CNC(=O)c1ccc(N2C[C@H]3CN(Cc4ccc5c6c(c(=O)[nH]c5c4)COCC6)C[C@@H]3C2)cn1` [Compound 65], the IC50 in the data set with MDA-MB-436 cells worked out at 0.36 nM; at PARP2 it was 334 nM; against PARP1 it was 6.22 nM; with DLD1 BRCA2−/− cells it was 0.63 nM.

For the molecule `CNC(=O)c1ccc(N2C[C@H]3CN(Cc4cc5[nH]c(=O)c6c(c5cn4)CCC6)C[C@@H]3C2)c(F)n1` [Compound 54], the IC50 in the data set on MDA-MB-436 cells turned out to be 0.45 nM; on PARP2 it was 7100 nM; on PARP1 it was 6.44 nM; with DLD1 BRCA2−/− cells, 0.54 nM.

As for `CNC(=O)c1ccc(N2C[C@H]3CN(Cc4cnc5c6c(c(=O)[nH]c5c4)CCCC6)C[C@@H]3C2)c(F)n1` [Compound 82], the IC50 is 1.38 nM in the data set with MDA-MB-436 cells, 185 nM on PARP2, 13.1 nM at PARP1 and 0.55 nM in the data set on DLD1 BRCA2−/− cells.

On to `O=C(NC1COC1)c1ccc(N2C[C@H]3CN(Cc4ccc5c6c(c(=O)[nH]c5c4)CCC6)C[C@@H]3C2)c(F)n1` [Compound 87], for which the concentration at 24 h in data set [1] (setting [2]) amounted to 244 ng/g; in data set [1] (setting [3]) it was 22 ng/mL. In addition, the partition ratio (Kp) at 24 h in data set [1] worked out at 11. Also, the IC50 worked out at 0.66 nM with MDA-MB-436 cells, 1200 nM at PARP2, 5.73 nM against PARP1 and 0.62 nM in the data set with DLD1 BRCA2−/− cells.

Consider `O=C(NC1COC1)c1ccc(N2C[C@H]3CN(Cc4cnc5c6c(c(=O)[nH]c5c4)CCC6)C[C@@H]3C2)c(F)n1` [Compound 52], for which the concentration at 24 h in data set [1] (setting [2]) was 121 ng/g; in data set [1] (setting [3]) it was 4.3 ng/mL. In addition, the Kp at 24 h in data set [1] is 28. Further, the IC50 in the data set with MDA-MB-436 cells is 0.44 nM; on PARP2, 3310 nM; against PARP1, 7.41 nM; in the data set on DLD1 BRCA2−/− cells, 1.44 nM.

For `O=C(NC1CC1)c1ccc(N2C[C@@H]3CN(Cc4cnc5c6c(c(=O)[nH]c5c4)COCC6)C[C@H]3C2)c(F)n1` (stereo in doubt) [Compound 72], the IC50 with MDA-MB-436 cells came out at 0.35 nM; on PARP2 it was 832 nM; against PARP1, 9.52 nM; in the data set with DLD1 BRCA2−/− cells, 2.11 nM.

Turning to `CCNC(=O)c1ccc(N2C[C@H]3CN(Cc4cnc5c6c(c(=O)[nH]c5c4)COCC6)C[C@@H]3C2)c(F)n1` [Compound 76], the IC50 came out at 0.5 nM in the data set with MDA-MB-436 cells, 574 nM at PARP2, 5.3 nM against PARP1 and 0.7 nM in the data set with DLD1 BRCA2−/− cells.

Turning to `CNC(=O)c1ccc(N2C[C@H]3CN(Cc4cc5[nH]c(=O)c6c(c5cn4)COCC6)C[C@@H]3C2)c(F)n1` [Compound 80], the IC50 in the data set with MDA-MB-436 cells worked out at 0.84 nM; on PARP2 it was 3880 nM; against PARP1, 5.05 nM; in the data set with DLD1 BRCA2−/− cells, 4.75 nM.

For `O=C(NC1COC1)c1ccc(N2C[C@H]3CN(Cc4ccc5c6c(c(=O)[nH]c5c4)COCC6)C[C@@H]3C2)c(F)n1` [Compound 69], the IC50 with MDA-MB-436 cells was 0.24 nM; at PARP2, 676 nM; against PARP1, 2.92 nM; with DLD1 BRCA2−/− cells, 0.81 nM.

Take `CNC(=O)c1ccc(N2C[C@@H]3CN(Cc4cnc5c(c4)[nH]c(=O)c4cccn45)C[C@H]3C2)cn1` (racemic) [Compound 4]: the IC50 in the data set with MDA-MB-436 cells amounted to 0.9 nM; on PARP2, 925 nM; at PARP1, 7.93 nM; in the data set on DLD1 BRCA2−/− cells it was 0.58 nM.

As for `CO[C@H]1C[C@@H](NC(=O)c2ccc(N3C[C@H]4CN(Cc5cnc6c7c(c(=O)[nH]c6c5)COCC7)C[C@@H]4C3)c(F)n2)C1` [Compound 73], the results for the concentration at 24 h in data set [1] (setting [2]) and in data set [1] (setting [3]) were 206 ng/g and 3.2 ng/mL, respectively. Moreover, the Kp at 24 h in data set [1] is 64. Besides, the IC50 in the data set on MDA-MB-436 cells came to 0.27 nM; at PARP2 it was 1040 nM; on PARP1, 8.29 nM; in the data set with DLD1 BRCA2−/− cells, 1.09 nM.

Turning to `CCc1cc2ncc(CN3C[C@@H]4CN(c5ccc(C(=O)NC)nc5)C[C@H]4C3)cc2[nH]c1=O` [Compound 15], the IC50 in the data set on MDA-MB-436 cells was 0.37 nM; on PARP2, 1270 nM; against PARP1, 6.25 nM; in the data set with DLD1 BRCA2−/− cells, 0.33 nM.

For `O=C(NC1COC1)c1ccc(N2C[C@H]3CN(Cc4cnc5c(c4)[nH]c(=O)c4cccn45)C[C@@H]3C2)c(F)n1` [Compound 64], the IC50 with MDA-MB-436 cells was 0.24 nM; at PARP2, 2900 nM; against PARP1, 8.01 nM; in the data set on DLD1 BRCA2−/− cells, 0.55 nM.

The Kp is the ratio of the level in a tissue or fluid to that in plasma or blood.
